Results as given in patent US8518917B2, “2-methylene-19-nor-vitamin D analogs and their uses” (Wisconsin Alumni Research Foundation, priority 2009, dated 2013).
Like-named read-outs stand apart in the source and are kept apart here.

How the values were obtained:
[1] = tested on: Human promyelocytic leukemia (HL60) cells; experiment: HL-60 cell differentiation (nitro blue tetrazolium reduction); type: cell-based; conditions: four days treatment, read-out: EC50, promotion of HL60 differentiation
Description: The study drugs were dissolved in ethanol and the concentrations determined using UV spectrophotometry. Serial dilutions were prepared so that a range of drug concentrations could be tested without changing the final concentration of ethanol (≦0.2%) present in the cell cultures.
Human promyelocytic leukemia (HL60) cells were grown in RPMI-1640 medium containing 10% fetal bovine serum. The cells were incubated at 37° C. in the presence of 5% CO2.
HL60 cells were plated at 1.2×10^5 cells/ml. Eighteen hours after plating, cells in duplicate were treated with drug. Four days later, the cells were harvested and a nitro blue tetrazolium reduction assay was performed (Collins et al., 1979; J. Exp. Med. 149:969-974). The percentage of differentiated cells was determined by counting a total of 200 cells and recording the number that contained intracellular black-blue formazan deposits. Verification of differentiation to monocytic cells was determined by measuring phagocytic activity (data not shown).

[2] = tested on: 24-hydroxylase (24Ohase) gene promoter; experiment: In vitro transcription assay, luciferase reporter in ROS 17/2.8 (bone) cells; type: cell-based; conditions: FIG. 3; for EC50: ROS 17/2.8 cells, sixteen hours after dosing, read-out: EC50, transcriptional activity in bone cells (24-hydroxylase gene)
Description: Transcription activity was measured in ROS 17/2.8 (bone) cells that were stably transfected with a 24-hydroxylase (24Ohase) gene promoter upstream of a luciferase reporter gene (Arbour et al., 1998). Cells were given a range of doses. Sixteen hours after dosing the cells were harvested and luciferase activities were measured using a luminometer. RLU=relative luciferase units.

[3] = target: T1, full-length recombinant rat vitamin D receptor (Rattus norvegicus, UniProt P13053); experiment: Vitamin D receptor competitive binding with [3H]-1,25(OH)2D3; conditions: read-out: Ki, competition with [3H]-1,25(OH)2D3 for binding to vitamin D receptor
T1 construct: Full-length recombinant rat receptor was expressed in E. coli; histidine tag (C); made in house; host or cells: E. coli BL21 (DE3) Codon Plus RIL
T1 sequence (P13053 1-423): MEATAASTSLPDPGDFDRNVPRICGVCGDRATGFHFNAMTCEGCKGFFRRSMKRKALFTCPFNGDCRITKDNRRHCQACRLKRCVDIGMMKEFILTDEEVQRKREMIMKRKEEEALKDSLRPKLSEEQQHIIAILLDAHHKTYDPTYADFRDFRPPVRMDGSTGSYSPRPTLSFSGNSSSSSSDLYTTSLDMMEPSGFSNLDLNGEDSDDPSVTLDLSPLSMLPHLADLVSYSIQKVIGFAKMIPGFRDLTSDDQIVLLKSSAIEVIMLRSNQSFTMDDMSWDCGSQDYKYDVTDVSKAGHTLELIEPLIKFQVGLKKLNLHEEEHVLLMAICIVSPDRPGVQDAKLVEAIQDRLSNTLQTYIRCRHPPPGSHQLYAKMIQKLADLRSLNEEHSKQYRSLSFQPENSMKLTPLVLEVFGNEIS
Description: Full-length recombinant rat receptor was expressed in E. coli BL21 (DE3) Codon Plus RIL cells and purified to homogeneity using two different column chromatography systems. The first system was a nickel affinity resin that utilizes the C-terminal histidine tag on this protein. The protein that was eluted from this resin was further purified using ion exchange chromatography (S-Sepharose Fast Flow). Aliquots of the purified protein were quick frozen in liquid nitrogen and stored at −80° C. until use. For use in binding assays, the protein was diluted in TEDK50 (50 mM Tris, 1.5 mM EDTA, pH7.4, 5 mM DTT, 150 mM KCl) with 0.1% Chaps detergent. The receptor protein and ligand concentration was optimized such that no more than 20% of the added radiolabeled ligand was bound to the receptor.
The following day, 100 mcl of hydroxylapatite slurry (50%) was added to each tube and mixed at 10-minute intervals for 30 minutes. […] After the final wash, the pellets were transferred to scintillation vials containing 4 ml of Biosafe II scintillation cocktail, mixed and placed in a scintillation counter. Total binding was determined from the tubes containing only radiolabeled ligand.

vitamin D-deficient rats [4] = experiment: Intestinal calcium transport (everted gut sac method); type: in vivo, rat; conditions: rats on 0.02% Ca diet, four consecutive ip doses
Description: (§1) Male, weanling Sprague-Dawley rats were placed on Diet 11 (Suda et al, J. Nutr. 100:1049, 1970) (0.47% Ca)+vitamins AEK for one week followed by Diet 11 (0.02% Ca)+vitamins AEK for 3 weeks. The rats were then switched to the same diet containing 0.47% Ca for one week followed by two weeks on the same diet containing 0.02% Ca. Dose administration began during the last week on 0.02% calcium diet. Four consecutive ip doses were given approximately 24 hours apart. Twenty-four hours after the last dose, blood was collected from the severed neck and the concentration of serum calcium determined by atomic absorption spectrometry as a measure of bone calcium mobilization. The first 10 cm of the intestine was also collected for intestinal calcium transport analysis using the everted gut sac method.

vitamin D-deficient rats [5] = experiment: Bone calcium mobilization (serum calcium); type: in vivo, rat
Description: as §1

[6] = 780 pmol/day for 4 consecutive days, ip, rats on 0.02% Ca diet
[7] = four consecutive ip doses, rats on 0.02% Ca diet

EC50 ([1]; Homo sapiens, HL-60, 96 h, FIG. 2 experiment) [nM]	Ki ([3]; FIG. 1 experiment (1-desoxy-2MD vs 1,25(OH)2D3)) [nM]	EC50 ([1]; Homo sapiens, HL-60, 96 h, FIG. 7 experiment) [nM]	Ki ([3]; FIG. 6 experiment (1D-MJ vs 1,25(OH)2D3)) [nM]	SMILES	EC50 [2] [nM]	times less potent than 1,25(OH)2D3 in increasing transcription of the 24-hydroxylase gene ([2]; bone cells)	times less potent than 1,25(OH)2D3 in promoting intestinal calcium transport (vitamin D-deficient rats [4])	mobilization of bone calcium (serum calcium) (vitamin D-deficient rats [5]; [6])	dose until which little to no bone calcium mobilization activity is observed (vitamin D-deficient rats [5]; [7]) [pmol/rat]	EC50 ([1]; FIG. 2 experiment) [nM]	EC50 ([1]; FIG. 7 experiment) [nM]	mobilization of bone calcium (serum calcium) (vitamin D-deficient rats [5]; 87 pmol, four consecutive ip doses, FIG. 8)
10	0.1			C=C1CC/C(=C\C=C2/CCC[C@]3(C)[C@@H]([C@@H](C)CCCC(C)(C)O)CC[C@@H]23)C[C@H]1O [1-desoxy-2MD, (20S)-25-hydroxy-2-methylene-19-nor-vitamin D3]	4	about 20 times	about 20 times	little or no mobilization of bone calcium	≥ 7020			
		300	4	C=C1CC/C(=C\C=C2/CCC[C@]3(C)[C@@H]([C@H](C)CCCC(C)(C)O)CC[C@@H]23)C[C@H]1O [1D-MJ, (20R)-25-hydroxy-2-methylene-19-nor-vitamin D3]			about 10 times	little or no mobilization of bone calcium	≥ 7020			
				C=C1/C(=C\C=C2/CCC[C@]3(C)[C@@H]([C@H](C)CCCC(C)(C)O)CC[C@@H]23)C[C@@H](O)C[C@@H]1O [1α,25-dihydroxyvitamin D3, reference compound]	0.2			significant increases in serum calcium		4	3	significant increases in serum calcium
